Laboratory results reported in PMC10997755, “Discovery of a small-molecule inhibitor that traps Polθ on DNA and synergizes with PARP inhibitors” (Nature Communications, 2024).
“And” between values parts separate entries of the source, which are not always exact repeats. Equal values may be shown once.

Columns and labels:
[1] = system: BRCA2-NULL cells; assay: Clonogenic assay (number of colonies counted); type: cell-based; details: three replicates
Text: Supplement 41467_2024_46593_MOESM7_ESM.xlsx, sheet "Supplem 1 b" | column: BRCA2-NULL

[2] = system: DLD1 Parental cells; assay: Apoptosis assay (FITC active caspase-3); type: cell-based; design: FITC- AVG / FITC+ AVG: unit not given here; details: for FITC+ AVG / FITC- AVG: DLD1 Parental
Protocol: DLD1 BRCA2 -/-, DLD1 Parental cells were plated on six well plates and treated with RTX-161 1 day after plating. Medium was replaced every 2 days with RTX-161. Cells were harvested 6 days after plating for apoptosis assay using FITC active caspase-3 apoptosis kit (BD biosciences, catalog # 550480) according to manufacturer’s instructions and analyzed by FACS with Celesta (Becton Dickinson).

[3] = system: VC8 cells; assay: Clonogenic assay; type: cell-based, Chinese hamster; details: for percent suvival: VC8 cells
Protocol: Cells were plated on six or twelve or twenty-four well plates. In six well plate, 1000 cells/ well of BRCA2 -/-, BRCA1 -/-, PALB2 mut and 500 cells/ well of wildtype pair was plated; In twelve well plate, 600 cells/ well of BRCA2 -/-, BRCA1 -/-, PALB2 mut and 400 cells/ well of wildtype pair was plated; In twenty-four well plate, 500 cells/ well of BRCA2 -/-, BRCA1 -/-, PALB2 mut and 300 cells/ well of wildtype pair was plated. For MEFs, 300 cells per well in six-well plate were seeded. The medium was replaced every 2 days until the colonies were ready for staining in 10–12 days. For staining: Medium was removed from plates, and cells were rinsed with PBS. Fixation was carried out with—Water: Ethanol: Acetic acid (5:4:1) for 30 min followed by staining of colonies with 0.5% crystal violet in Water: Ethanol (3:2) for 2 h at room temperature. The plates were rinsed with water and left for drying overnight at room temperature. Colonies were then counted and IC50 was calculated using results from 3 or more independent experiments. Response curves are shown as mean colony formation +/- S.E.M.
Data are expressed as mean ± SEM from at least 3 independent experiments with triplicates for each condition unless stated otherwise. When conducting comparison between two groups, two-tailed unpaired t-test was used. Significance was assumed at p < 0.05. Asterisks in the figures indicate significance, ^∗p < 0.05, ^∗∗p < 0.01, ^∗∗∗p < 0.001. Combenefit® software version 2.021 was used to perform synergy analyses for drug combinations between RTx-161 and PARPi. GraphPad Prism 9 software was used to calculate IC50.

`CN(C(=O)Oc1ccc(C(F)(F)F)cc1C(F)(F)F)c1ccc(F)cc1` [MC160385] was tested, and the “number of olonies counted” value ([1]; MC160385 2.5 μM) was 67 and 60 and 64, the “number of olonies counted” value ([1]; MC160385 5 μM) was 56 and 64 and 62 and the “number of olonies counted” value ([1]; MC160385 10 μM) was 57 and 62 and 60. For the same compound, the “number of olonies counted” value ([1]; MC160385 20 μM) was 59 and 56 and 58.

For `CN(C(=O)Oc1c(N2CCN(CCO)C2=O)cc(C(F)(F)F)cc1C(F)(F)F)c1ccc(F)cc1` [RTx-161], the “% population FITC Caspase-3 Negative” value ([2]; 10 uM RTX-161) was 99%, the “% population FITC Caspase-3 Negative” value ([2]; 20 uM RTX-161) was 99% and the “FITC+ AVG” value ([2]; 10 uM, left block of sheet) was 1.067. The “FITC- AVG” value ([2]; 10 uM, left block of sheet) was 98.9333, the “FITC+ AVG” value ([2]; 10 uM, middle block of sheet) was 2.067 and the “FITC- AVG” value ([2]; 10 uM, middle block of sheet) was 98. For the same compound, the “FITC+ AVG” value ([2]; 10 uM, right block of sheet) was 2.033, the “FITC- AVG” value ([2]; 10 uM, right block of sheet) was 97.9667 and the “FITC+ AVG” value ([2]; 20 uM, left block of sheet) was 0.9333. The “FITC- AVG” value ([2]; 20 uM, left block of sheet) was 99.0667, the “FITC+ AVG” value ([2]; 20 uM, middle block of sheet) was 1.467 and the “FITC- AVG” value ([2]; 20 uM, middle block of sheet) was 98.6667. For the same compound, the “FITC+ AVG” value ([2]; 20 uM, right block of sheet) was 1.567, the “FITC- AVG” value ([2]; 20 uM, right block of sheet) was 98.7667 and the percent suvival ([3]; RTX-161 1 micro M + ola 30.00 nano M) was 0%. For the same compound, the percent suvival ([3]; RTX-161 1 micro M, ola 0.00 nano M) was 79.4521% and 92.4444% and 101.498%, the percent suvival ([3]; RTX-161 3 micro M + ola 30.00 nano M) was 0% and the percent suvival ([3]; RTX-161 3 micro M, ola 0.00 nano M) was 62.3288% and 70.2222% and 85.0187%. The “combination with Olaparib” value ([3]; clonogenic survival) was “significantly reduced cellular resistance to Olaparib”.
